# From article PMC10746543, “Design principles for cyclin K molecular glue degraders” (Nature Chemical Biology, 2023)
# Values joined by “and” are separate entries in the source; they are usually repeats but may differ in a detail not shown here. Equal entries are not always repeated. Where two headings read alike, the source gives them in different places.
# Tests used:
# CDK12–cyclin K = CDK12–cyclin K (Homo sapiens, UniProt Q9NYV4); experiment: Lanthascreen kinase binding assay, CDK12; conditions: for Lanthascreen raw signal, sheet CDK12: duplicates
# Chain of CDK12–cyclin K (Q9NYV4 713-1052): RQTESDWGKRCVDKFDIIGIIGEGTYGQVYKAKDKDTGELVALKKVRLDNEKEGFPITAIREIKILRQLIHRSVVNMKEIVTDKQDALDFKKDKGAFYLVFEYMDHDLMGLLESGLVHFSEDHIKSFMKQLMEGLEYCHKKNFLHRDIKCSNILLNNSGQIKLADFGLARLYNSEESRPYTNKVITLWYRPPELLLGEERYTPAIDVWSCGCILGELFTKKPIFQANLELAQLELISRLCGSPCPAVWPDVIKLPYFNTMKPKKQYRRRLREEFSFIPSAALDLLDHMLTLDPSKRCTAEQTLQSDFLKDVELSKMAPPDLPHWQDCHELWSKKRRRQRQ
# Chain of CDK12–cyclin K (O75909 1-267 partner limits assumed): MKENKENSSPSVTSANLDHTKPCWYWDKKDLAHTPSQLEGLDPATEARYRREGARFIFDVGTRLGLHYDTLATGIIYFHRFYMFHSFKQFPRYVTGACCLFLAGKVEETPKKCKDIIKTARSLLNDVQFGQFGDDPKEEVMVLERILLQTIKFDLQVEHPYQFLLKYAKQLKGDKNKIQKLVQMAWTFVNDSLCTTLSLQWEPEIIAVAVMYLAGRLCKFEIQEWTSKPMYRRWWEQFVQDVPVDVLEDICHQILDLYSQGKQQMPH
# Experimental: Lanthascreen experiments were performed using commercially available reagents (Thermo Fisher) and according to the manufacturer’s instructions.
# CDK12–cyclin K and DDB1 = molecular target: T1, CDK12–cyclin K and DDB1 (Homo sapiens, UniProt Q16531+Q9NYV4, K965R); experiment: TR-FRET Kd determination, quadratic fit, 50 nM or 10 nM CDK12–cyclin K; format: binding
# T1 construct: His6–CDK12 (a.a. 713–1,052); full-length or beta-propeller B domain deletion (ΔBPB: a.a. 396–705 deleted) constructs of His6–DDB1ΔBPB, StrepII–Avi–DDB1, or His6–Spy–DDB1; made in house; host or cells: Trichoplusia ni High Five insect cells (baculovirus)
# T1 sequence (Q9NYV4 713-1052 K965R): as the sequence (Q9NYV4 713-1052) above, with K253R counted along it
# T1 sequence (O75909 1-267 partner): as the sequence (O75909 1-267 partner limits assumed) above
# T1 sequence (Q16531 whole entry): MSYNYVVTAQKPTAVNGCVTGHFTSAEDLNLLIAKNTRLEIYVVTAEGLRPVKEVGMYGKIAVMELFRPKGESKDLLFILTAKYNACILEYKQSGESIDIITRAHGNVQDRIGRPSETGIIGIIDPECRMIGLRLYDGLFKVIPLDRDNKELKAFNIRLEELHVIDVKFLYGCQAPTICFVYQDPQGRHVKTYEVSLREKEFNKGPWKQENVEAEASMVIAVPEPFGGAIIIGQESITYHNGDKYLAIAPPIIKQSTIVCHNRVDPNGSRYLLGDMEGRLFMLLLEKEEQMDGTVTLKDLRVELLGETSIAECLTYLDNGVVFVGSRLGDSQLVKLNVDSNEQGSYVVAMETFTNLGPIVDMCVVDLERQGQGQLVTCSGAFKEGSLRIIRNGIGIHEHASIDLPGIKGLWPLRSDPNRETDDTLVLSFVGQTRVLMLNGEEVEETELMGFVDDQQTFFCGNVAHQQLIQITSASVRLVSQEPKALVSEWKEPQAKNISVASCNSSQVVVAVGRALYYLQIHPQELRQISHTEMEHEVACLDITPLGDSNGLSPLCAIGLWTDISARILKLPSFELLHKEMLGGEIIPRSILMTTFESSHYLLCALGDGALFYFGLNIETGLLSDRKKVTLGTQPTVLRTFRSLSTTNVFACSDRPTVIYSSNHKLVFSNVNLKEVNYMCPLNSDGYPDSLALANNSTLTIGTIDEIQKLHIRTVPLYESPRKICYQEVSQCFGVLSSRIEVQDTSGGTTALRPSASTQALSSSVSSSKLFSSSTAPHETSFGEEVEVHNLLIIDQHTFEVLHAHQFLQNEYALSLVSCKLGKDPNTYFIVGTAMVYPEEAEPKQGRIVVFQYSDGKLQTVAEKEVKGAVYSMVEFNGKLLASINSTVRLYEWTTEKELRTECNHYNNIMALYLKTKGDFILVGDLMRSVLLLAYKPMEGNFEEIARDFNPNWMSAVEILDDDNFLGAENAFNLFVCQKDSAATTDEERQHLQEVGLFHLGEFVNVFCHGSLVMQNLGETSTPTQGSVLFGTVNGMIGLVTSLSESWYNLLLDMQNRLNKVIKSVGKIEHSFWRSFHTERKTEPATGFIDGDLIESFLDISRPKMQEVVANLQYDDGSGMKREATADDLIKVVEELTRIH
# Excerpt: Equation (2) is a quadratic binding equation used for Kd determination,where Top and Bottom refer to the curve plateaus. […]
# [1] = Supplementary Table 2, read-out: Lanthascreen IC50 [nM] CDK12
# [2] = 10 nM CDK12-cyclin K + 100 nM DDB1, n = 1
# [3] = compound 0.038147 nM, series r13
# [4] = compound 0.152588 nM, series r13
# [5] = compound 0.610352 nM, series r13
# [6] = compound 9.76563 nM, series r13
# [7] = compound 39.0625 nM, series r13
smiles,measurement,setting,value
"Cc1cc2nc(CNc3nc(N4CCN(C)CC4)nc4c(Br)cnn34)[nH]c2cc1C [DS73, reference compound]",IC50,CDK12–cyclin K; [1],25 nM
same,"Lanthascreen raw signal, sheet CDK12","CDK12–cyclin K; compound 1.02544 nM, series r1",0.01046 and 0.009798
same,"Lanthascreen raw signal, sheet CDK12","CDK12–cyclin K; compound 3.15521 nM, series r1",0.009054 and 0.008698
same,"Lanthascreen raw signal, sheet CDK12","CDK12–cyclin K; compound 9.46563 nM, series r1",0.00642 and 0.008208
same,"Lanthascreen raw signal, sheet CDK12","CDK12–cyclin K; compound 31.5521 nM, series r1",0.007402 and 0.006928
same,"Lanthascreen raw signal, sheet CDK12","CDK12–cyclin K; compound 99.3891 nM, series r1",0.007817 and 0.006924
same,"Lanthascreen raw signal, sheet CDK12","CDK12–cyclin K; compound 315.521 nM, series r1",0.006025 and 0.005353
same,"Lanthascreen raw signal, sheet CDK12","CDK12–cyclin K; compound 3155.21 nM, series r1",0.005515 and 0.005262
same,"Lanthascreen raw signal, sheet CDK12","CDK12–cyclin K; compound 10002 nM, series r1",0.006527 and 0.0053
same,Kd,CDK12–cyclin K and DDB1; [2],0.2 ± 0.3 nM
same,TR-FRET Kd*,CDK12–cyclin K and DDB1; [2],subnanomolar range
same,TR-FRET signal,"CDK12–cyclin K and DDB1; 10 nM CDK12-cyclin K, compound 0.468 nM",0.1115
same,TR-FRET signal,"CDK12–cyclin K and DDB1; 10 nM CDK12-cyclin K, compound 2.16 nM",0.172
same,TR-FRET signal,"CDK12–cyclin K and DDB1; 10 nM CDK12-cyclin K, compound 3.6 nM",0.3284
same,TR-FRET signal,"CDK12–cyclin K and DDB1; 10 nM CDK12-cyclin K, compound 7.92 nM",0.4288
same,TR-FRET signal,"CDK12–cyclin K and DDB1; 10 nM CDK12-cyclin K, compound 15.84 nM",0.4992
same,TR-FRET signal,"CDK12–cyclin K and DDB1; 10 nM CDK12-cyclin K, compound 30.96 nM",0.5275
same,TR-FRET signal,"CDK12–cyclin K and DDB1; 10 nM CDK12-cyclin K, compound 62.6399 nM",0.5247
same,TR-FRET signal,"CDK12–cyclin K and DDB1; 10 nM CDK12-cyclin K, compound 125.279 nM",0.5329
same,TR-FRET signal,"CDK12–cyclin K and DDB1; 10 nM CDK12-cyclin K, compound 244.8 nM",0.5439
same,TR-FRET signal,"CDK12–cyclin K and DDB1; 10 nM CDK12-cyclin K, compound 993.6 nM",0.5387
same,TR-FRET signal,"CDK12–cyclin K and DDB1; 10 nM CDK12-cyclin K, compound 2001.6 nM",0.5235
same,Kd,"CDK12–cyclin K and DDB1; 50 nM CDK12-cyclin K + 100 nM DDB1, n = 1",2 ± 1 nM
same,TR-FRET signal,"CDK12–cyclin K and DDB1; 50 nM CDK12-cyclin K, compound 0.468 nM",0.2245
same,TR-FRET signal,"CDK12–cyclin K and DDB1; 50 nM CDK12-cyclin K, compound 2.16 nM",0.505
same,TR-FRET signal,"CDK12–cyclin K and DDB1; 50 nM CDK12-cyclin K, compound 3.6 nM",0.4237
same,TR-FRET signal,"CDK12–cyclin K and DDB1; 50 nM CDK12-cyclin K, compound 7.92 nM",0.5318
same,TR-FRET signal,"CDK12–cyclin K and DDB1; 50 nM CDK12-cyclin K, compound 15.84 nM",0.9093
same,TR-FRET signal,"CDK12–cyclin K and DDB1; 50 nM CDK12-cyclin K, compound 30.96 nM",1.797
same,TR-FRET signal,"CDK12–cyclin K and DDB1; 50 nM CDK12-cyclin K, compound 62.6399 nM",2.967
same,TR-FRET signal,"CDK12–cyclin K and DDB1; 50 nM CDK12-cyclin K, compound 125.279 nM",3.159
same,TR-FRET signal,"CDK12–cyclin K and DDB1; 50 nM CDK12-cyclin K, compound 244.8 nM",3.183
same,TR-FRET signal,"CDK12–cyclin K and DDB1; 50 nM CDK12-cyclin K, compound 993.6 nM",3.081
same,TR-FRET signal,"CDK12–cyclin K and DDB1; 50 nM CDK12-cyclin K, compound 2001.6 nM",3.197
Cn1cc(-n2cnc3c(NCc4nc5cc(Cl)c(Cl)cc5[nH]4)nc(N4CCOCC4)nc32)cn1 [SR-4835],"Lanthascreen raw signal, sheet CDK12",CDK12–cyclin K; [3],0.01046 and 0.009983
same,"Lanthascreen raw signal, sheet CDK12","CDK12–cyclin K; compound 0.038147 nM, series r37",0.01351 and 0.01182
same,"Lanthascreen raw signal, sheet CDK12","CDK12–cyclin K; compound 0.038147 nM, series r49",0.007647 and 0.00729
same,"Lanthascreen raw signal, sheet CDK12",CDK12–cyclin K; [4],0.009614 and 0.01041
same,"Lanthascreen raw signal, sheet CDK12","CDK12–cyclin K; compound 0.152588 nM, series r37",0.01248 and 0.01201
same,"Lanthascreen raw signal, sheet CDK12","CDK12–cyclin K; compound 0.152588 nM, series r49",0.009969 and 0.01054
same,"Lanthascreen raw signal, sheet CDK12",CDK12–cyclin K; [5],0.01066 and 0.01021
same,"Lanthascreen raw signal, sheet CDK12","CDK12–cyclin K; compound 0.610352 nM, series r37",0.01219 and 0.01189
same,"Lanthascreen raw signal, sheet CDK12","CDK12–cyclin K; compound 0.610352 nM, series r49",0.01058 and 0.01056
same,"Lanthascreen raw signal, sheet CDK12","CDK12–cyclin K; compound 1.02544 nM, series r1",0.008952 and 0.009485
same,"Lanthascreen raw signal, sheet CDK12","CDK12–cyclin K; compound 3.15521 nM, series r1",0.008128 and 0.008332
same,"Lanthascreen raw signal, sheet CDK12","CDK12–cyclin K; compound 9.46563 nM, series r1",0.008981 and 0.006574
same,"Lanthascreen raw signal, sheet CDK12",CDK12–cyclin K; [6],0.009284 and 0.009045
same,"Lanthascreen raw signal, sheet CDK12","CDK12–cyclin K; compound 9.76563 nM, series r37",0.009426 and 0.01016
same,"Lanthascreen raw signal, sheet CDK12","CDK12–cyclin K; compound 9.76563 nM, series r49",0.009267 and 0.008766
same,"Lanthascreen raw signal, sheet CDK12","CDK12–cyclin K; compound 31.5521 nM, series r1",0.007535 and 0.008876
same,"Lanthascreen raw signal, sheet CDK12",CDK12–cyclin K; [7],0.008439 and 0.008567
same,"Lanthascreen raw signal, sheet CDK12","CDK12–cyclin K; compound 39.0625 nM, series r37",0.009028 and 0.008999
same,"Lanthascreen raw signal, sheet CDK12","CDK12–cyclin K; compound 39.0625 nM, series r49",0.00795 and 0.007253
same,"Lanthascreen raw signal, sheet CDK12","CDK12–cyclin K; compound 99.3891 nM, series r1",0.006758 and 0.007046
same,"Lanthascreen raw signal, sheet CDK12","CDK12–cyclin K; compound 156.25 nM, series r13",0.008038 and 0.008664
same,"Lanthascreen raw signal, sheet CDK12","CDK12–cyclin K; compound 156.25 nM, series r37",0.006404 and 0.007018
same,"Lanthascreen raw signal, sheet CDK12","CDK12–cyclin K; compound 156.25 nM, series r49",0.006482 and 0.006079
same,"Lanthascreen raw signal, sheet CDK12","CDK12–cyclin K; compound 315.521 nM, series r1",0.006236 and 0.005797
same,"Lanthascreen raw signal, sheet CDK12","CDK12–cyclin K; compound 625 nM, series r13",0.008328 and 0.007759
same,"Lanthascreen raw signal, sheet CDK12","CDK12–cyclin K; compound 625 nM, series r37",0.006628 and 0.006561
same,"Lanthascreen raw signal, sheet CDK12","CDK12–cyclin K; compound 625 nM, series r49",0.005855 and 0.00595
same,"Lanthascreen raw signal, sheet CDK12","CDK12–cyclin K; compound 2500 nM, series r13",0.007658 and 0.007398
same,"Lanthascreen raw signal, sheet CDK12","CDK12–cyclin K; compound 2500 nM, series r37",0.006178 and 0.006049
same,"Lanthascreen raw signal, sheet CDK12","CDK12–cyclin K; compound 2500 nM, series r49",0.005776 and 0.005723
same,"Lanthascreen raw signal, sheet CDK12","CDK12–cyclin K; compound 3155.21 nM, series r1",0.006081 and 0.005159
same,"Lanthascreen raw signal, sheet CDK12","CDK12–cyclin K; compound 10000 nM, series r13",0.007533 and 0.00783
same,"Lanthascreen raw signal, sheet CDK12","CDK12–cyclin K; compound 10000 nM, series r37",0.005313 and 0.005643
same,"Lanthascreen raw signal, sheet CDK12","CDK12–cyclin K; compound 10000 nM, series r49",0.005957 and 0.005417
same,"Lanthascreen raw signal, sheet CDK12","CDK12–cyclin K; compound 10002 nM, series r1",0.004606 and 0.00667
Cc1cccc(Nc2nc(CC(=O)Nc3ncc(C)s3)cs2)n1 [HQ461],IC50,"CDK12–cyclin K; Lanthascreen, read-out: CDK12 inhibition",> 10000 nM
same,IC50,CDK12–cyclin K; [1],> 10000 nM
same,"Lanthascreen raw signal, sheet CDK12",CDK12–cyclin K; [3],0.01223 and 0.01089
same,"Lanthascreen raw signal, sheet CDK12",CDK12–cyclin K; [4],0.01192 and 0.01181
same,"Lanthascreen raw signal, sheet CDK12",CDK12–cyclin K; [5],0.01147 and 0.01206
same,"Lanthascreen raw signal, sheet CDK12","CDK12–cyclin K; compound 1.02544 nM, series r1",0.009388 and 0.008109
same,"Lanthascreen raw signal, sheet CDK12","CDK12–cyclin K; compound 3.15521 nM, series r1",0.008061 and 0.009006
same,"Lanthascreen raw signal, sheet CDK12","CDK12–cyclin K; compound 9.46563 nM, series r1",0.008944 and 0.009513
same,"Lanthascreen raw signal, sheet CDK12",CDK12–cyclin K; [6],0.01062 and 0.01153
same,"Lanthascreen raw signal, sheet CDK12","CDK12–cyclin K; compound 31.5521 nM, series r1",0.009567 and 0.009846
same,"Lanthascreen raw signal, sheet CDK12",CDK12–cyclin K; [7],0.01003 and 0.0116
same,"Lanthascreen raw signal, sheet CDK12","CDK12–cyclin K; compound 99.3891 nM, series r1",0.009103 and 0.01044
same,"Lanthascreen raw signal, sheet CDK12","CDK12–cyclin K; compound 156.25 nM, series r13",0.0115 and 0.0116
same,"Lanthascreen raw signal, sheet CDK12","CDK12–cyclin K; compound 315.521 nM, series r1",0.007883 and 0.008557
same,"Lanthascreen raw signal, sheet CDK12","CDK12–cyclin K; compound 625 nM, series r13",0.01055 and 0.01154
same,"Lanthascreen raw signal, sheet CDK12","CDK12–cyclin K; compound 2500 nM, series r13",0.01098 and 0.01126
same,"Lanthascreen raw signal, sheet CDK12","CDK12–cyclin K; compound 3155.21 nM, series r1",0.006491 and 0.00695
same,"Lanthascreen raw signal, sheet CDK12","CDK12–cyclin K; compound 10000 nM, series r13",0.01006 and 0.01041
same,"Lanthascreen raw signal, sheet CDK12","CDK12–cyclin K; compound 10002 nM, series r1",0.00959 and 0.009612
